We go through 4 molecules from patent US20200255367A1, “Diesters for Personal Care Applications Derived from 1-Methylheptyl Alcohol” (Inolex Investment Corporation, priority 2016, published 2020).

The nature of data set [1]: Moisture content by Karl-Fischer. Format: physicochemical. The protocol:
Moisture content (% HOH) was measured using an automatic volumetric Karl-Fischer device, the Aquastar AQV21 (Gibbstown, N.J., USA.)

Data set [2] in a line: Kinematic viscosity at 25° C., ASTM method. In kind it is physicochemical. How it is done: Kinematic viscosity was tested at 25° C. using ASTM (American Society of Testing and Materials, West Conshohocken, Pa., USA) official method number D-44515a.
The nature of data set [3]: Acid value (AV), ASTM method. In kind it is physicochemical. How it is done:
Acid value (AV) was measured using ASTM official method number D-974-1 ? .

The nature of data set [4]: Color, ASTM D-1209. Format: physicochemical. The protocol:
Color was measured using ASTM D-1209-05(2001 reapproved), and flash point was determined using ASTM D-92-12b.

For data set [5] the following is noted: 60° C.; cited from earlier work.

Molecule `CCCCCCC(C)OC(=O)CCC(=O)OC(C)CCCCCC` (stereo not shown) [bis(1-methylheptyl) butanedioate] came in with a Moisture in data set [1] of 0.01 wt. %. For the same molecule, the “Kinematic Viscosity” value in data set [2] worked out at 12.0 cSt. In data set [3], this molecule displayed an Acid value of 0.01 mg KOH/g. Moreover, the Color in data set [4] is recorded as 12 APHA.

`CCOC(=O)c1ccccc1` [ethyl benzoate]: the “alkaline hydrolysis rate constant (kOH)” value in data set [5] was 0.258 M⁻¹ s⁻¹.

Regarding `CC(C)OC(=O)c1ccccc1` [isopropyl benzoate], the “alkaline hydrolysis rate constant (kOH)” value in data set [5] was 0.0533 M⁻¹ s⁻¹.

As for `CCCCCCC(=O)OCC(C)(C)COC(=O)CCCCCC` [neopentyl glycol diheptanoate], the Moisture in data set [1] was 0.01 wt. %. The “Kinematic Viscosity” value in data set [2] came to 7.2 cSt. In data set [3], this molecule registered an Acid value of 0.05 mg KOH/g. In data set [4], this molecule showed a Color of 17 APHA.
